Experimental data reported in paper PMC9172550, “Novel derivatives of eugenol as potent anti-inflammatory agents via PPARγ agonism: rational design, synthesis, analysis, PPARγ protein binding assay and computational studies” (RSC Advances, 2022).

Tests used:
[1] = target: egg albumin (Gallus gallus, UniProt P01012); test: Albumin denaturation assay (in vitro anti-inflammatory activity); design: species or system hen; settings: means ± SD, n = 3, read-out: percentage inhibition of albumin denaturation
Experimental: In this assay egg albumin is used as protein. Protein denaturation is achieved by keeping the reaction mixture at 70 °C in a water bath for 10 minutes.
The reaction mixture containing 0.2 ml of egg albumin (from fresh hen's eggs), 2.8 ml of phosphate-buffered saline (pH 6.4), and were mixed with 2 ml of the synthesized compounds in varying concentrations. Then the samples were incubated at 37 °C for 20 min and then heated to 70 °C for 20 min. After cooling the samples, the turbidity was measured spectrophotometrically at 660 nm. […] The following formula was used to calculate the percentage inhibition of protein denaturation. [drawing 5]

[2] = target: T1, PPARγ LBD protein (Homo sapiens, UniProt P37231); test: LanthaScreen TR-FRET competitive ligand displacement (PPARγ protein binding) assay; settings: for IC50: TR-FRET PPARγ binding, tracer displacement
T1 construct: 1 nM 6xHis-PPAR LBD protein
T1 sequence (P37231 238-503 limits assumed): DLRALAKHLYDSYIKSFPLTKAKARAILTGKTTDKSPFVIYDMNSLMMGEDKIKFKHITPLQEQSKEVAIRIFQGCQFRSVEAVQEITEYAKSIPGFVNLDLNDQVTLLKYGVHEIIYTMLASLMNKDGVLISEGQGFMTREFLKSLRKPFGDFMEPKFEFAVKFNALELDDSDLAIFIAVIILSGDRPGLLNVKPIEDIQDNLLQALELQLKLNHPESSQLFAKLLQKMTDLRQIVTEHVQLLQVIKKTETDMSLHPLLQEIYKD
Experimental: Based on time-resolved fluorescence resonance energy transfer (TR-FRET), the nuclear receptor competitive binding assay was utilized to identify PPARγ ligands. […] The tracer is displaced from PPARγ-LBD by a chemical under test, resulting in a decrease in the FRET signal and a low TR-FRET ratio (Fig. 8).
We performed a time-resolved fluorescence resonance energy transfer (TR-FRET) assay using a black flat bottom 384-well plate and a buffer containing 20 mM potassium phosphate (pH 7.4), 0.5 mM EDTA, 50 mM KCl, and 0.01% Tween-20, 5 mM TCEP. For the TR-FRET coregulator interaction assay, each well contained 400 nM FITC-labeled TRAP220 or NCoR1 peptides, 1 nM LanthaScreen Elite Tb-anti-His Antibody, 4 nM 6xHis-PPARγ LBD protein and 400 nM peptide in TR-FRET buffer in 22.5 μL total volume per well. Each well ([…] per well) included 1 nM 6xHis-PPAR LBD protein, 1 nM LanthaScreen Elite Tb-anti-His Antibody, and 5 nM Fluormone Pan-PPAR Green tracer ligand in TR-FRET buffer for the ligand displacement experiment. Ligand stocks were made by serial dilution in DMSO, then added to wells in triplicate to a final DMSO concentration of 1%, then incubated at room temperature for 1 hour, and read using a BioTek Synergy Neo multimode plate reader. The Tb donor was stimulated at 340 nm, its fluorescence emission was measured at 490 nm, and the FITC emission of the acceptor was detected at 520 nm. The signal at 520 nm/490 nm was used to compute the TR-FRET ratio.[37,38]

Chain of egg albumin (P01012 2-386): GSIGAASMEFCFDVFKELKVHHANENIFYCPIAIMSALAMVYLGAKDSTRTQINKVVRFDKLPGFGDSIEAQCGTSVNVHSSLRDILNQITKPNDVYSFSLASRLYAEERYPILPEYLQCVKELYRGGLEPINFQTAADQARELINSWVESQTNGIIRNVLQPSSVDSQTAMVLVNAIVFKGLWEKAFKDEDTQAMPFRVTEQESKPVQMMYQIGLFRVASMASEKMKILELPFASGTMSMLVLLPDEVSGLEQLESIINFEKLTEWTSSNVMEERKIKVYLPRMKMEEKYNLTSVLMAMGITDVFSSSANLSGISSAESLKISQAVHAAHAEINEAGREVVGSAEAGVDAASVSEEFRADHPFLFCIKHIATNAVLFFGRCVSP

C=CCc1ccc(OCC(=O)Nc2ccc(Cl)cc2)c(OC)c1 [Compound 1C, 2-(4-Allyl-2-methoxyphenoxy)-N-(4-chlorophenyl) acetamide]
inhibition at 6.25 µM [1]: 5.23 ± 4.12%
inhibition at 12.5 µM [1]: 9.14 ± 0.615%
inhibition at 25 µM [1]: 15.7 ± 1.59%
inhibition at 50 µM [1]: 22.6 ± 1.98%
inhibition at 150 µM [1]: 38.5 ± 1.1%
inhibition at 200 µM [1]: 48.1 ± 1.14%
inhibition at 400 µM [1]: 56.9 ± 1.8%
IC50 [2]: 10.7 µM
Raw Data (RLU) ([2]; TR-FRET signal at 0.0000512 µM): 2.069 RLU
Raw Data - Background (RLU) ([2]; TR-FRET signal at 0.0000512 µM): 1.834 RLU
Raw Data (RLU) ([2]; TR-FRET signal at 0.000256 µM): 1.896 RLU
Raw Data - Background (RLU) ([2]; TR-FRET signal at 0.000256 µM): 1.660 RLU
Raw Data (RLU) ([2]; TR-FRET signal at 0.00128 µM): 1.907 RLU
Raw Data - Background (RLU) ([2]; TR-FRET signal at 0.00128 µM): 1.672 RLU
Raw Data (RLU) ([2]; TR-FRET signal at 0.0064 µM): 1.934 RLU
Raw Data - Background (RLU) ([2]; TR-FRET signal at 0.0064 µM): 1.699 RLU
Raw Data (RLU) ([2]; TR-FRET signal at 0.032 µM): 1.989 RLU
Raw Data - Background (RLU) ([2]; TR-FRET signal at 0.032 µM): 1.754 RLU
Raw Data (RLU) ([2]; TR-FRET signal at 0.16 µM): 1.921 RLU
Raw Data - Background (RLU) ([2]; TR-FRET signal at 0.16 µM): 1.686 RLU
Raw Data (RLU) ([2]; TR-FRET signal at 0.8 µM): 1.922 RLU
Raw Data - Background (RLU) ([2]; TR-FRET signal at 0.8 µM): 1.687 RLU
Raw Data (RLU) ([2]; TR-FRET signal at 4 µM): 1.761 RLU
Raw Data - Background (RLU) ([2]; TR-FRET signal at 4 µM): 1.526 RLU
Raw Data (RLU) ([2]; TR-FRET signal at 20 µM): 1.058 RLU
Raw Data - Background (RLU) ([2]; TR-FRET signal at 20 µM): 0.823 RLU
Raw Data (RLU) ([2]; TR-FRET signal at 100 µM): 0.951 RLU
Raw Data - Background (RLU) ([2]; TR-FRET signal at 100 µM): 0.716 RLU

C=CCc1ccc(OCC(=O)Nc2cccc(C)c2)c(OC)c1 [Compound 1D, 2-(4-Allyl-2-methoxyphenoxy)-N-m-tolylacetamide]
inhibition at 6.25 µM [1]: 2.66 ± 1.12%
inhibition at 12.5 µM [1]: 7.88 ± 3.8%
inhibition at 25 µM [1]: 11.1 ± 3.65%
inhibition at 50 µM [1]: 15.9 ± 7.79%
inhibition at 150 µM [1]: 22.4 ± 5.43%
inhibition at 200 µM [1]: 29.6 ± 3.94%
inhibition at 400 µM [1]: 36.7 ± 4.77%
IC50 [2]: 15 µM
Raw Data (RLU) ([2]; TR-FRET signal at 0.0000512 µM): 1.92 RLU
Raw Data - Background (RLU) ([2]; TR-FRET signal at 0.0000512 µM): 1.69 RLU
Raw Data (RLU) ([2]; TR-FRET signal at 0.000256 µM): 1.95 RLU
Raw Data - Background (RLU) ([2]; TR-FRET signal at 0.000256 µM): 1.72 RLU
Raw Data (RLU) ([2]; TR-FRET signal at 0.00128 µM): 1.85 RLU
Raw Data - Background (RLU) ([2]; TR-FRET signal at 0.00128 µM): 1.61 RLU
Raw Data (RLU) ([2]; TR-FRET signal at 0.0064 µM): 2.07 RLU
Raw Data - Background (RLU) ([2]; TR-FRET signal at 0.0064 µM): 1.83 RLU
Raw Data (RLU) ([2]; TR-FRET signal at 0.032 µM): 1.93 RLU
Raw Data - Background (RLU) ([2]; TR-FRET signal at 0.032 µM): 1.70 RLU
Raw Data (RLU) ([2]; TR-FRET signal at 0.16 µM): 1.87 RLU
Raw Data - Background (RLU) ([2]; TR-FRET signal at 0.16 µM): 1.64 RLU
Raw Data (RLU) ([2]; TR-FRET signal at 0.8 µM): 1.91 RLU
Raw Data - Background (RLU) ([2]; TR-FRET signal at 0.8 µM): 1.68 RLU
Raw Data (RLU) ([2]; TR-FRET signal at 4 µM): 1.91 RLU
Raw Data - Background (RLU) ([2]; TR-FRET signal at 4 µM): 1.67 RLU
Raw Data (RLU) ([2]; TR-FRET signal at 20 µM): 1.91 RLU
Raw Data - Background (RLU) ([2]; TR-FRET signal at 20 µM): 1.67 RLU
Raw Data (RLU) ([2]; TR-FRET signal at 100 µM): 1.40 RLU
Raw Data - Background (RLU) ([2]; TR-FRET signal at 100 µM): 1.17 RLU

O=C(O)Cc1ccccc1Nc1c(Cl)cccc1Cl [Standard diclofenac, Diclofenac sodium, reference compound]
inhibition at 6.25 µM [1]: 10 ± 0.463%
inhibition at 12.5 µM [1]: 15.7 ± 0.429%
inhibition at 25 µM [1]: 27 ± 0.336%
inhibition at 50 µM [1]: 38.5 ± 0.468%
inhibition at 150 µM [1]: 48.3 ± 3.14%
inhibition at 200 µM [1]: 60.9 ± 0.223%
inhibition at 400 µM [1]: 66.29 ± 0.375%
